The source of these data is patent publication US7968548B2, “Melanocortin receptor-specific piperazine compounds with diamine groups” (Palatin Technologies, Inc., priority 2005, dated 2011).

The target of one assay is T1, MC1-R (Mus musculus, UniProt Q01727).
T1 construct: from B-16 mouse melanoma cells (containing endogenous MC1-R); endogenous in cells; host or cells: B-16 mouse melanoma cells (membrane homogenates)
Put plainly: Competitive inhibition binding assay using [I125]-NDP-α-MSH, B-16 mouse melanoma cell membranes. Particulars: B-16 mouse melanoma cells; for inhibition at 1 µM: 1 μM compound. The method, then: (§1) A competitive inhibition binding assay was performed using membrane homogenates prepared from HEK-293 cells that express recombinant hMC4-R, hMC3-R, or hMC5-R, and from B-16 mouse melanoma cells (containing endogenous MC1-R). In some instances, HEK-293 cells that express recombinant hMC1-R were employed. In the examples that follow, all MC3-R, MC4-R and MC5-R values are for human recombinant receptors. MC1-R values are for B-16 mouse melanoma cells, unless the heading is “hMC1-R”, in which case the value is for human recombinant MC1-R. Assays were performed in 96 well GF/B Millipore multiscreen filtration plates (MAFB NOB10) pre-coated with 0.5% bovine serum albumin (Fraction V). […] After incubation for 60 minutes at 37° C., the assay mixture was filtered and the membranes washed three times with ice-cold buffer. Filters were dried and counted in a gamma counter for bound radioactivity. […] Maximal specific binding (100%) was defined as the difference in radioactivity (cpm) bound to cell membranes in the absence and presence of 1 μM NDP-α-MSH. […] Each assay was conducted in triplicate and the actual mean values are described, with results less than 0% reported as 0%. Ki values for test compounds were determined using Graph-Pad Prism® curve-fitting software.

For another assay, the target named is T2, MC3-R (Homo sapiens, UniProt P41968).
T2 construct: expressed in transfected cells; host or cells: HEK-293
T2 sequence (P41968 whole entry): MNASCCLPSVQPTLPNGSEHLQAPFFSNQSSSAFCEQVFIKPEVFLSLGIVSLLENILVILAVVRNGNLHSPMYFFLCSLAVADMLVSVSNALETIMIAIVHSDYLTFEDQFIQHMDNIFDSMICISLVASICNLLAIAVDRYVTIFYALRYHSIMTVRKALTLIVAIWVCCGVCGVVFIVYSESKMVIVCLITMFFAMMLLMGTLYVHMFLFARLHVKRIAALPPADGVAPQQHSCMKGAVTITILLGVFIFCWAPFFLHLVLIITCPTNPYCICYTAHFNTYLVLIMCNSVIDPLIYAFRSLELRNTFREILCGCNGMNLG
The assay is described as follows: Competitive inhibition binding assay using [I125]-NDP-α-MSH, HEK-293 membranes, recombinant hMC3-R. To be noted: for inhibition at 1 µM: 1 μM compound. The method, then: as §1

In another assay the target is T3, MC5-R (Homo sapiens, UniProt P33032).
T3 construct: expressed in transfected cells; host or cells: HEK-293
T3 sequence (P33032 whole entry): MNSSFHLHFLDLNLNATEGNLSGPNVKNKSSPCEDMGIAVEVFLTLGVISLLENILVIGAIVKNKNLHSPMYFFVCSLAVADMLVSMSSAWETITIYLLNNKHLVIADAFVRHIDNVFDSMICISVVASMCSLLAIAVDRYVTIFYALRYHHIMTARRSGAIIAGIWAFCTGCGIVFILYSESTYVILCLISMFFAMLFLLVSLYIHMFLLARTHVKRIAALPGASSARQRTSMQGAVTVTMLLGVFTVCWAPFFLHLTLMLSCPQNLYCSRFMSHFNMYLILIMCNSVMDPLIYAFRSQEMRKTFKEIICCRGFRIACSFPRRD
The assay is described as follows: Competitive inhibition binding assay using [I125]-NDP-α-MSH, HEK-293 membranes, recombinant hMC5-R. Particulars: for inhibition at 1 µM: 1 μM compound. The method, then:
as §1

Assay [1] concerns the target T4, MC4-R (Homo sapiens, UniProt P32245). Put plainly: Competitive inhibition binding assay using [I125]-NDP-α-MSH, HEK-293 membranes, recombinant hMC4-R. To be noted: for inhibition at 1 µM: 1 μM compound. More on the design: expressed in transfected cells; host or cells: HEK-293. The method, then:
as §1

Assay [2] concerns the target T4, MC4-R. Put plainly: Assay for agonist activity: cAMP accumulation in HEK-293 cells that express MC4-R. It is filed as cell-based. More on the design: expressed in transfected cells; host or cells: HEK-293. Particulars: HEK293; cell line that expresses MC4-R; relative to NDP-α-MSH; read-out: maximum effect observed, % of the maximum achieved with NDP-α-MSH (cAMP). The method, then: Assay for agonist activity. Accumulation of intracellular cAMP was examined as a measure of the ability of the test compounds to elicit a functional response in HEK-293 cells that express MC4-R. Confluent HEK-293 cells that express recombinant hMC4-R were detached from culture plates by incubation in enzyme-free cell dissociation buffer. Dispersed cells were suspended in Earle's Balanced Salt Solution containing 10 mM HEPES (pH 7.5), 1 mM MgCl2, 1 mM glutamine, 0.5% albumin and 0.3 mM 3-isobutyl-1-methyl-xanthine (IBMX), a phosphodiesterase inhibitor. The cells were plated in 96-well plates at a density of 0.5×10^5 cells per well and pre-incubated for 30 minutes. Cells were exposed for 1 hour at 37° C. to test compounds dissolved in DMSO (final DMSO concentration of 1%) at a concentration range of 0.05-5000 nM in a total assay volume of 200 μL. NDP-α-MSH was used as the reference agonist. At the end of the incubation period, cells were disrupted by the addition of 50 μL of lysis buffer (cAMP EIA kit, Amersham) followed by vigorous pipetting. Levels of cAMP in the lysates were determined using a cAMP EIA kit (Amersham). Data analysis was performed by nonlinear regression analysis with Graph-Pad Prism® software. The maximum efficacies of the test compounds were compared to that achieved by the reference melanocortin agonist NDP-αMSH.
In general terms: cAMP levels reflect the balance of adenylyl cyclase and phosphodiesterase activity.

A further assay has as its target T5, hMC1-R (Homo sapiens, UniProt Q01726).
T5 construct: expressed in transfected cells; host or cells: HEK-293
The assay is described as follows: Competitive inhibition binding assay using [I125]-NDP-α-MSH, HEK-293 membranes, recombinant hMC1-R. Particulars: human recombinant MC1-R. The method, then: as §1

The nature of assay [3]: Mouse model IN feeding studies (body weight). It is filed as in vivo. Particulars: 20 hours. The method, then: Food intake and body weight after IN and IP dosing. Changes in food intake and body weight were evaluated for selected compounds. Male C57BL/6 mice were obtained from Jackson labs (Bar Harbor, Me.). Animals were individually housed in conventional plexiglass hanging cages and maintained on a controlled 12 hour on/off light cycle. Water and pelleted (Harlan Teklad 2018 18% Protein Rodent Diet) food was provided ad libitum. The mice were dosed IP (by intraperitoneal injection) after a 24 hour fast or IN (by intranasal administration) with vehicle or selected compounds (0.1-3 mg/kg, and in some cases up to 10 mg/kg). All animals were dosed once a day (or up to four consecutive days) at the start of the “lights off” period. The changes in food intake for the 4 hour and 20 hour period after dosing relative to control animals administered vehicle were determined. Body weights were determine 4 hours prior to dosing and 20 hours after dosing, and the change in body weight relative to control animals administered vehicle were determined.

T4 sequence (P32245 whole entry): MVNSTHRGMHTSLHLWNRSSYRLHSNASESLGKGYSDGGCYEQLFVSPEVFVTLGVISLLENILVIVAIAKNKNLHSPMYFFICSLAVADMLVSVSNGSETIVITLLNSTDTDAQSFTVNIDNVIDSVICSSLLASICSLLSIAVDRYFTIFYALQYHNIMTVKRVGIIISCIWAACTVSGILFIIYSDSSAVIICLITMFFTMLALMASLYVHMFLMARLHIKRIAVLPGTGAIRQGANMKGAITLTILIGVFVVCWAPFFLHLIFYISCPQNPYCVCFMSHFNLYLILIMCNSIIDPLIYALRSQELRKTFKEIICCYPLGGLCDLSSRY
T5 sequence (Q01726 whole entry): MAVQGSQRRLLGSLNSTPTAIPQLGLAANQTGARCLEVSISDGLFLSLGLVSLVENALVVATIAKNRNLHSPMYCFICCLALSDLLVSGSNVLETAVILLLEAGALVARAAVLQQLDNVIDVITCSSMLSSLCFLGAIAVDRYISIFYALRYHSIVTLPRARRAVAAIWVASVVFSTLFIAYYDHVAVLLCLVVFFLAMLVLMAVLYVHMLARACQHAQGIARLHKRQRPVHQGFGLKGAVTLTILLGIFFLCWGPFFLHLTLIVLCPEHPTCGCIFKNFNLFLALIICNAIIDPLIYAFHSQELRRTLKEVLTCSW
T1 sequence (Q01727 whole entry): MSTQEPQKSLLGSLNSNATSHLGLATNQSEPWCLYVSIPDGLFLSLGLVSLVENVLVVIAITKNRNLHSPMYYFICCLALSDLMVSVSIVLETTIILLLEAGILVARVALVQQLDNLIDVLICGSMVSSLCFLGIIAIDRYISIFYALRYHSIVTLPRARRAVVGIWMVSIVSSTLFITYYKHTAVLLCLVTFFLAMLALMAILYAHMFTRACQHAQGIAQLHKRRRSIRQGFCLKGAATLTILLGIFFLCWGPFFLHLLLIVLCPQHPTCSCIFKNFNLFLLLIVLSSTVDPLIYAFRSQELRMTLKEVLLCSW

As a reminder, the inhibition is the drop in the measured response relative to a control, in per cent. Turning to `Cc1ccc(C[C@H](CN2C[C@@H](C)N(C(=O)Cc3ccc4ccccc4c3)C[C@@H]2CCCN2CCN(C)CC2)N(C)C)c(C)c1` [Example 10, 1-{(2R,5S)-4-[(R)-2-Dimethylamino-3-(2,4-dimethyl-phenyl)-propyl]-2-methyl-5-[3-(4-methyl-piperazin-1-yl)-propyl]-piperazin-1-yl}-2-naphthalen-2-I-ethanone], the inhibition at 1 µM came out at 28% at MC1-R, 15% at MC3-R, 54% at MC5-R and 47% at MC4-R [1].
Consider `Cc1ccc(C[C@H](CN2C[C@@H](C)N(C(=O)Cc3ccc4ccccc4c3)C[C@@H]2CCCN(C)CCN(C)C)N(C)C)c(C)c1` [Example 9, 1-((2R,5S)-4-[(R)-2-Dimethylamino-3-(2,4-dimethyl-phenyl)-propyl]-5-{3-[(2-dimethylamino-ethyl)-methyl-amino]-propyl}-2-methyl-piperazin-1-yl)-2-naphthalen-2-yl-ethaone], for which the inhibition at 1 µM at MC1-R came to 0%; on MC3-R it was 9%; at MC5-R, 51%; at MC4-R [1], 49%.
Broadly, the Ki is the dissociation constant of the complex between target and ligand, obtained from inhibition or displacement. Regarding `Cc1ccc(C[C@@H](N)CN2C[C@@H](C)N(C(=O)Cc3ccc4ccccc4c3)C[C@@H]2CCCNC2CCCCC2N)c(C)c1` (stereo partly drawn) [Example 6, 1-{(2R,5S)-5-[3-(2-Amino-cyclohexylamino)-propyl]-4-[(R)-2-amino-3-(2,4-dimethyl-phenyl)-propyl]-2-methyl-piperazin-1-yl}-2-naphthalen-2-yl-ethanone], the inhibition at 1 µM at MC1-R worked out at 33%; on MC3-R it was 47%; at MC5-R it was 98%; at MC4-R [1], 88%. Moreover, the Ki on MC1-R amounted to 580 nM; on MC3-R, 535 nM; at MC5-R, 38 nM; on MC4-R [1], 255 nM.
As to `CC(C)C[C@@H]1CN(C(=O)[C@H](N)Cc2ccc(Cl)cc2Cl)[C@@H](CCCCNCCN)CN1C(=O)Cc1ccc2ccccc2c1` [Example 1, (R)-2-Amino-1-[(2S,5R)-2-[4-(2-amino-ethylamino)-butyl]-5-isobutyl-4-(2-naphthalen-2-yl-acetyl)-piperazin-1-yl]-3-(2,4-dichloro-phenyl)-propan-1-one], the inhibition at 1 µM at MC1-R turned out to be 55%; on MC3-R, 71%; at MC5-R it was 68%; at MC4-R [1], 98%. The inhibition constant (Ki) at MC1-R was determined as 102 nM; on MC3-R, 250 nM; on MC5-R, 301 nM; on MC4-R [1] it was 18 nM. In addition, the Emax on MC4-R [2] is 61%.
With `Cc1ccc(C[C@@H](N)CN2C[C@@H](C)N(C(=O)Cc3ccc4ccccc4c3)C[C@@H]2CCCN2CCNCC2)c(C)c1` [Example 4], the inhibition at 1 µM at MC1-R worked out at 12%; on MC3-R it was 43%; at MC5-R, 97%; on MC4-R [1], 55%.
Take `Cc1ccc(C[C@@H](N)CN2C[C@@H](C)N(C(=O)Cc3ccc4ccccc4c3)C[C@@H]2CCCNCCN)c(C)c1` [Example 3]: the inhibition at 1 µM was 41% at MC1-R, 82% at MC3-R, 94% at MC5-R and 92% at MC4-R [1]. Moreover, the Ki on MC1-R is 660 nM; on MC3-R it was 320 nM; at MC5-R it was 20 nM; at MC4-R [1], 160 nM.
Consider `Cc1ccc(C[C@H](CN2C[C@@H](C)N(C(=O)Cc3ccc4ccccc4c3)C[C@@H]2CCCN(C)C2CCN(C)C2)N(C)C)c(C)c1` (stereo partly drawn) [Example 7, 1-((2R,5S)-4-[(R)-2-Dimethylamino-3-(2,4-dimethyl-phenyl)-propyl]-2-methyl-5-{3-[methyl-(1-methyl-pyrrolidin-3-yl)-amino]-propyl}-piperazin-1-yl)-2-aphthalen-2-yl-ethanone], for which the inhibition at 1 µM on MC1-R was found to be 4%; at MC3-R, 0%; on MC5-R, 44%; at MC4-R [1], 56%.
Consider `CC(C)C[C@@H]1CN(C(=O)[C@H](N)Cc2ccc(Cl)c(Cl)c2)[C@@H](CCCCNCCN)CN1C(=O)[C@H](N)Cc1ccc(Cl)c(Cl)c1` [Example 22, (R)-2-Amino-1-{(2R,5S)-4-[(R)-2-amino-3-(3,4-dichloro-phenyl)-propionyl]-5-[4-(2-amino-ethylamino)-butyl]-2-isobutyl-piperazin-1-yl}-3-(3,4-dichloro-phenyl)-propan-1-one], for which the Ki at hMC1-R was 116 nM; at MC3-R it was 69 nM; on MC5-R it was 179 nM; at MC4-R [1] it was 4 nM. Further, the “average decrease in body weight compared to control animals” value is 0.6% in assay [3] (0.1 mg/kg) and 4.9% in assay [3] (0.3 mg/kg).
In the case of `Cc1ccc(C[C@H](CN2C[C@@H](C)N(C(=O)Cc3ccc4ccccc4c3)C[C@@H]2CCCN(C)C2CCCCC2N(C)C)N(C)C)c(C)c1` (some centres unmarked) [Example 8], the inhibition at 1 µM on MC1-R was found to be 26%; at MC3-R it was 28%; at MC5-R, 48%; on MC4-R [1] it was 52%.
As for `CC(C)C[C@@H]1CN(C(=O)[C@H](N)Cc2ccc(Cl)cc2Cl)[C@@H](CCCNCCN)CN1C(=O)[C@H](N)Cc1ccc(Cl)cc1Cl` [Example 12, (R)-2-Amino-1-{(2R,5S)-4-[(R)-2-amino-3-(2,4-dichloro-phenyl)-propionyl]-5-[3-(2-amino-ethylamino)-propyl]-2-isobutyl-piperazin-1-yl}-3-(2,4-dichloro-phenyl)-propan-1-one], the inhibition at 1 µM came to 23% at hMC1-R (1 μM compound), 41% at MC3-R, 55% on MC5-R and 89% at MC4-R [1]. Moreover, the inhibitory constant (Ki) at hMC1-R was 309 nM; on MC3-R, 574 nM; on MC4-R [1] it was 44 nM. Further, the “average decrease in body weight compared to control animals” value in assay [3] (0.1 mg/kg) is given as 0.7%; in assay [3] (0.3 mg/kg), 3.1%.
`Cc1ccc(C[C@@H](N)CN2C[C@@H](C)N(C(=O)Cc3ccc4ccccc4c3)C[C@@H]2CCCNC2CCNC2)c(C)c1` (stereo partly drawn) [Example 5, 1-{(2R,5S)-4-[(R)-2-Amino-3-(2,4-dimethyl-phenyl)-propyl]-2-methyl-5-[3-(pyrrolidin-3-ylamino)-propyl]-piperazin-1-yl}-2-naphthalen-2-yl-ethanone]: the inhibition at 1 µM was 41% at MC1-R, 75% on MC3-R, 96% on MC5-R and 81% on MC4-R [1]. In addition, the inhibition constant Ki on MC1-R stood at 685 nM; at MC3-R, 395 nM; at MC5-R it was 31 nM; on MC4-R [1], 387 nM.
